Values of other authors, collected in US20130225598A1, “Stabilized Amorphous Forms of Imatinib Mesylate” (Novartis AG, priority 2007, published 2013).

Conditions: at temperatures below 140 ° C.

For `CS(=O)(=O)O.Cc1ccc(NC(=O)c2ccc(CN3CCN(C)CC3)cc2)cc1Nc1nccc(-c2cccnc2)n1` [4-(4-methylpiperazin-1-ylmethyl)-N-[4-methyl-3-(4-(pyridin-3-yl)-pyrimidin-2-ylamino-)phenyl]-benzamide mesylate], which “thermodynamic stability relative to alpha crystal form” value is on record?
Its value is “thermodynamically more stable than the alpha form”.
